Structures can show the parent of a compound that is named as a salt. Where two headings read alike, the source gives them in different places.
Assays:
[1] = system: influenza virus A/hanfang/359/95 (H3N2); test: organism not typed; format: cell-based; settings: 50% virus-inhibitory concentration after 40 hr at 37 °C, MDCK cells; – = no anti-H3N2 activity at the maximum non-toxic concentration
[2] = system: influenza virus A/Fort Monmouth/1/1947 (H1N1); test: organism not typed; format: cell-based; settings: MDCK cells, CPE
MDCK cells [3] = settings: lead 1, value of previous study; cited from earlier work
MDCK cells [4] = test: Cytotoxicity assay; format: cell-based; settings: 50% cytotoxic concentration, 48 hr
Procedure: A three-fold dilution compound was added to cell monolayer, and the cells continued to be cultivated for 48 hr, and then the CPE was recorded. The TC50 value of each compound was calculated by the methods of Reed & Muench.

[5] = Stability assay in whole blood; format: in vitro ADME, SD rats; settings: 37 °C; for stability in whole blood (in words): in vitro
Procedure: The results hinted that 9f owned a good PK stability profile in blood, and it was chosen for the next investigation.
The fresh bloods were collected on the day of experiment from SD rats, and pre-warmed in a water bath at 37 °C. A concentration of 10 mM tested compound or enalapril stock solutions were prepared in DMSO, and then diluted with 45% MeOH/H2O to achieve […] dosing solutions. […] At the end of incubation, for each sample, […] water and […] of stop solution (200 ng·mL^−1 tolbutamide plus 20 ng·mL^−1 buspirone in acetonitrile) were immediately added to precipitate the protein, and centrifuged at 4000 rpm for 20 min. An aliquot of supernatant ([…]) was then extracted, mixed with […] H2O, and then shaken at 800 rpm for about 10 min before being submitted for a liquid chromatography-tandem mass […] (LC-MS/MS) analysis. The experiment was repeated twice.
Figure 3 The stability assessments of key compounds 9f and 9j in whole blood. […]

IAV M2 = format: cell-based, Influenza A virus
Kunming mice = settings: for weight loss and behaviour: oral single dose 125, 250, 500 mg·kg^–1, seven days, compared to control; for median lethal dose (LD50): oral single dose, Kunming mice, monitored seven days
Procedure: The acute toxicity tests of the two key compounds 9f and 9j were performed in Kunming mice. Each compound was given orally in a single-dosing experiment at 125, 250, and 500 mg·kg^–1, respectively. Then, the mice were closely monitored for seven days.
Female Kunming mice with weights of 20.0 (±1.0 g) were fed with regular rodent chow, and housed in an air-conditioned room. The mice were randomly divided into different groups with 10 mice each. Each compound was given orally in a single-dosing experiment at 125, 250, or 500 mg·kg^−1, respectively. The mice were closely monitored for seven days. Body weight, as well as survival, was monitored.

[6] = system: H3N2 virus non-structural protein 1 (NS1); test: Anti-H3N2 activity at the protein level, NS1 Western blot; format: cell-based, Influenza A virus; settings: 40 μM, MDCK cells, MOI 0.003, 24 hr

Row | Compound | melting point | IC50 [1] [µM] | IC50 [2] [µM] | further results
1 | O=C(CC12CC3CC(CC(C3)C1)C2)OCCCC[C@@H]1[C@H]2CCCN3CCC[C@@H](CN1S(=O)(=O)c1ccc(C(F)(F)F)cc1)[C@@H]23 (as salt: hydrochloride) [Compound 9b, 12N-p-Trifluoromethlybenzenesulfonyl matrinic butyl-1’-adamantaneacetatehydrochloride] | 227 °C (dec.) |  |  | 
2 | O=C(OCCCC[C@@H]1[C@H]2CCCN3CCC[C@@H](CN1S(=O)(=O)c1ccc(C(F)(F)F)cc1)[C@@H]23)C12CC3CC(CC(Br)(C3)C1)C2 (as salt: hydrochloride) [Compound 9c, 12N-p-Trifluoromethlybenzenesulfonylmatrinicbutyl-3’-bromoadamantane-1’-carboxylate hydrochloride] | 222 to 223 °C |  |  | 
3 | O=C(OCCCC[C@@H]1[C@H]2CCCN3CCC[C@@H](CN1S(=O)(=O)c1cccc(C(F)(F)F)c1)[C@@H]23)C12CC3CC(CC(C3)C1)C2 (as salt: hydrochloride) [Compound 9d, 12N-m-Trifluoromethlybenzenesulfonyl matrinic butyl adamantine-1’-carboxylate hydrochloride] | 190 to 191 °C |  |  | 
4 | O=C(CC12CC3CC(CC(C3)C1)C2)OCCCC[C@@H]1[C@H]2CCCN3CCC[C@@H](CN1S(=O)(=O)c1cccc(C(F)(F)F)c1)[C@@H]23 (as salt: hydrochloride) [Compound 9e, 12N-m-Trifluoromethlybenzenesulfonyl matrinic butyl-1’-adamantaneacetatehydrochloride] | 155 to 156 °C |  |  | 
5 | O=C(OCCCC[C@@H]1[C@H]2CCCN3CCC[C@@H](CN1S(=O)(=O)c1ccc(C(F)(F)F)cc1)[C@@H]23)C12CC3CC(CC1C3)C2 (as salt: hydrochloride) [Compound 9g, 12N-p-Trifluoromethlybenzenesulfonylmatrinicbutyl-3’-noradamantane-1’-carboxylate hydrochloride] | 186 to 187 °C |  |  | 
6 | O=C(OCCCC[C@@H]1[C@H]2CCCN3CCC[C@@H](CN1S(=O)(=O)c1cccc(C(F)(F)F)c1)[C@@H]23)C12CC3CC(CC1C3)C2 (as salt: hydrochloride) [Compound 9h, 12N-m-Trifluoromethlybenzenesulfonylmatrinicbutyl-3’-noradamantane-1’-carboxylate hydrochloride] | 207 °C (dec.) |  |  | 
7 | O=C(CC1CC2CCC1C2)OCCCC[C@@H]1[C@H]2CCCN3CCC[C@@H](CN1S(=O)(=O)c1ccc(C(F)(F)F)cc1)[C@@H]23 (some centres unmarked) (as salt: hydrochloride) [Compound 9i, 12N-p-Trifluoromethlybenzenesulfonyl matrinic butyl-2’-norbornane acetate hydrochloride] | 223 °C (dec.) |  |  | 
8 | CC(C)(C)C(=O)OCCCC[C@@H]1[C@H]2CCCN3CCC[C@@H](CN1S(=O)(=O)c1ccc(C(F)(F)F)cc1)[C@@H]23 (as salt: hydrochloride) [Compound 9k, 12N-p-Trifluoromethlybenzenesulfonyl matrinic butyl pivalate hydrochloride] | 219 to 221 °C |  |  | 
9 | CC(C)(C)C(=O)OCCCC[C@@H]1[C@H]2CCCN3CCC[C@@H](CN1S(=O)(=O)c1cccc(C(F)(F)F)c1)[C@@H]23 (as salt: hydrochloride) [Compound 9l, 12N-m-Trifluoromethlybenzenesulfonyl matrinicbutylpivalate hydrochloride] | 162 to 164 °C |  |  | 
10 | NC12CC3CC(CC(C3)C1)C2 [AH, amantadine hydrochloride, reference compound] |  | 3.25 ± 0.5 | 2.73 | 
11 | CCCCC1C2CCCN3CCCC(CN1Cc1ccc(C(=O)O)cc1)C23 (centres unmarked) [Compound 1, 12N-p-carboxybenzyl matrinic butane] |  |  |  | TC50 (MDCK cells [3]): >540.5 µM
12 | O=C(OCCCC[C@@H]1[C@H]2CCCN3CCC[C@@H](CN1S(=O)(=O)c1ccc(C(F)(F)F)cc1)[C@@H]23)C12CC3CC(CC(Br)(C3)C1)C2 [Compound 9c, 12N-p-Trifluoromethlybenzenesulfonylmatrinicbutyl-3’-bromoadamantane-1’-carboxylate hydrochloride] |  | 8.2 ± 2.07 | 27.5 ± 0.1 | TC50 (MDCK cells [4]): 73.6 ± 4.3 µM
13 | O=C(OCCCC[C@@H]1[C@H]2CCCN3CCC[C@@H](CN1S(=O)(=O)c1cccc(C(F)(F)F)c1)[C@@H]23)C12CC3CC(CC(C3)C1)C2 [Compound 9d, 12N-m-Trifluoromethlybenzenesulfonyl matrinic butyl adamantine-1’-carboxylate hydrochloride] |  | 5.9 ± 0.9 | 22.4 ± 1.3 | TC50 (MDCK cells [4]): 54.9 ± 3.5 µM
14 | O=C(OCCCC[C@@H]1[C@H]2CCCN3CCC[C@@H](CN1S(=O)(=O)c1cccc(C(F)(F)F)c1)[C@@H]23)C12CC3CC(CC(Br)(C3)C1)C2 [Compound 9f, 12N-m-Trifluoromethlybenzenesulfonylmatrinicbutyl-3’-bromoadamantane-1’-carboxylate hydrochloride] |  | 7.2 ± 1.1 | 23.4 ± 1.5 | remaining rate of protype in whole blood ([5]; 60 min): 100%; remaining rate of protype in whole blood ([5]; 120 min): 97.9%; stability in whole blood (in words) [5]: high stability profile; TC50 (MDCK cells [4]): 75.7 ± 14.2 µM; M2 level (IAV M2): significantly reduce; weight loss and behaviour (Kunming mice): neither significant weight loss nor behavioral abnormality; median lethal dose (LD50) (Kunming mice): higher than 500 mg·kg^–1; H3N2 virus NS1 level [6]: significantly reduce
15 | O=C(CC1CC2CCC1C2)OCCCC[C@@H]1[C@H]2CCCN3CCC[C@@H](CN1S(=O)(=O)c1cccc(C(F)(F)F)c1)[C@@H]23 (some centres unmarked) [Compound 9j, 12N-m-Trifluoromethlybenzenesulfonyl matrinic butyl-2’-norbornane acetate hydrochloride] |  | 10.2 ± 1.8 | 22.6 ± 1.3 | remaining rate of protype in whole blood ([5]; 30 min): 47.7%; remaining rate of protype in whole blood ([5]; 120 min): 1.3%; stability in whole blood (in words) [5]: poor stability; TC50 (MDCK cells [4]): 110.3 ± 18.5 µM; weight loss and behaviour (Kunming mice): neither significant weight loss nor behavioral abnormality; median lethal dose (LD50) (Kunming mice): higher than 500 mg·kg^–1; H3N2 virus NS1 level [6]: significantly reduce
16 | CCOC(=O)[C@H](CCc1ccccc1)N[C@@H](C)C(=O)N1CCC[C@H]1C(=O)O [enalapril, (S)-N-[1-(ethoxycarbonyl)-3-phenylpropyl]-Ala-Pro maleate, reference compound] |  |  |  | stability in whole blood (in words) [5]: hydrolyzed quickly

From PMC6429159, “Evolution and Biological Evaluation of Matrinic Derivatives with Amantadine Fragments As New Anti-Influenza Virus Agents” (Molecules, 2019)
